Measurements published in US10285963B2, “Combination of metabolic bio-energetic and nutra-epigentic regulators, nutraceutical compounds in conventional and nanotechnologies combination to revert and prevent the chronic damage accelerated cellular senescence produced by diabetes and other degenerative chronic complex diseases” (priority 2015, dated 2019).

What was measured:
Artemia salina nauplii = Artemia salina nauplii toxicity assay; conditions: for toxicity expressed as percent mortality of A. salina nauplii: any of the tested concentrations (62.5-1000 ppm)
Excerpt: Artemia salina is a crustacean sensitive to a wide range of compounds with biological activity and very different chemical structures. Michael et al. (Michael A. S. et al in Science, 1956, 123: 464) and Vanhaecke et al. (Vanhaecke et al in Ecotoxicol Environ Saf 1981, 5:382) proposed its use for toxicity testing. It is a test that allows conducting practically and economically toxicity studies of different nature substances. […] This model is accepted by the FDA (Food Drug Administration) and EPA (Environmental Protection Agency in 2002), as a test for evaluating the toxicity and ecotoxicity of pharmaceutical and/or food products.
In an Artemia salina hatcher, 0.5 g cysts of Artemia salina were hatched in artificial seawater at 37 g/L at a temperature of 27° C. with constant aeration for 24 h. In every 5 wells out of a 96-well plate, 0.1 mL of artificial seawater (37 g/L) was applied with a single-channel pipette with ten nauplii, separated from the hatcher and counted one by one to achieve an exact separation of 10 nauplii. […] Using a multichannel micropipette, 0.1 mL of the solutions prepared in the plate were added, achieving a final concentration of 62.5, 125, 250, 500 and 1000 ppm per five wells of nauplii. For blank samples, 10 untreated nauplii were placed in a 0.2 mL volume of artificial seawater (37 g/L). The microplate was incubated at 25° C. for 24 h. After incubation period, A. salina nauplii alive and dead were counted with a stereoscopic microscope and % mortality was determined. Toxicity was expressed as percent mortality of A. salina nauplii: 0-10% non-toxic, moderately toxic 11-50%, 51-90% highly toxic and 100% extremely toxic, considering the Gualdron et al, scale. (Gualdron R. et al in Chem Rev. Col. Farm, 1997, 26: 15 to 19). […] Data were analyzed with the Statistical Package Graph Pad Prism version 6, by analysis of variance (ANOVA) test and Tukey multiple comparisons (p<0.05).

[1] = test system: human peripheral blood mononuclear cells (lymphocytes) DNA; conditions: 0.1 mM, positive control, 24 h
Experimental: By using culture medium cell concentration was adjusted to 1×10^6 cells/mL. Cells obtained were seeded in Eppendorf vials at a density of 3×10^4 cells/mL and incubated at 37° C. and 5% CO2 for 24 hours to stabilize. […] Cells were incubated for 24 h to be later precipitated by centrifugation at 1200 rpm for 5 min and treated with 0.1 mL trypsin (0.25%) for 3 min at 37° C. and 5% CO2. Cells were resuspended in 1 mL of RPMI 1640 medium and centrifuged again at 1200 rpm for 5 min, the supernatant was discarded and the cells were incubated with 1 mL of lysis solution (NaCl 2.5 M, Na2EDTA 100 mM, Tris HCl 10 mM, and 1% Triton) at 4° C. for 24 h. After 24 h, vials were centrifuged at 1200 rpm at 4° C. […] The generated images were acquired with a high resolution digital camera (FIG. 4, above) and analyzed with ImageQuant TL v8.1 software. The area of the comet head representing intact DNA was quantified by densitometric analysis and plotted as percentage versus the negative control (culture medium) (FIG. 4, in the middle). The tail of the comet representing the damaged DNA was measured in millimeters and represented as the percentage of the positive control (H2O2). Data were expressed as mean±mean standard deviation (FIG. 4, below). Data obtained were analyzed by analysis of variance (ANOVA) using in case of any difference a post-hoc Tukey test using GraphPad Prism v6.0 software, at p<0.05.

[2] = test system: Vero cell line (African green monkey kidney cells); assay: MTT microdilution assay, Vero; format: cell-based
Excerpt: (§1) MTT method, based on reduction of 3-(4,5-dimethylthiazol-2-yl)-2,5-diphenyltetrazolium bromide, is an assay that reflects the metabolic function of cells. MTT is a yellow dye reduced to formazan (blue dye) by mitochondrial dehydrogenases, which are part of the respiratory chain of viable cells (Hwa et al., 2015). It is used in a quantitative colorimetric microdilution method applied for determination of survival and proliferative capacity of mammalian cells (Mosmann T. in J. Immunol Methods, 1983, 65 (1-2): 55). […]
(§2) Dulbecco's modified Eagle Minimum Essential culture Medium/F12 (DMEM/F12) was used, supplemented with 10% fetal bovine serum (FBS) and 1 mL of a mixture of antibiotics (200,000 IU of penicillin and 0.5 g streptomycin). […] Subsequently MTT solution was removed, retaining the formed formazan salts, then they added 0.1 mL of isopropyl alcohol and the absorbance at 540 nm was read in a Synergy HT microplate reader with GEN 5 embedded software. In the calculation of cell viability percentage detected absorbance in wells with cells proliferated in untreated culture medium were considered 100% of living cells. […] Results of data analysis are expressed as the average±standard deviation (FIG. 5).

[3] = test system: human embryonic kidney (HEK-293) cell line; assay: MTT microdilution assay, HEK-293; format: cell-based
Excerpt: as §1, §2

[4] = test system: peripheral human lymphocytes; assay: Lymphocyte proliferation and viability, trypan blue count; format: cell-based; conditions: positive control 1.25 mg/mL, 48 h
Excerpt: For the assay, a biological in vitro system using mononuclear cells culture from peripheral blood mononuclear cells—peripheral human lymphocytes was used. The system was selected because they form from 25 to 35% of leukocytes and they are the main immune response promoting cells since they recognize foreign antigens and activate cellular immune response mediators, causing proliferation or suppression phenomena before endogenous or exogenous stimuli. These cultures are widely used in research to evaluate the effects of various compounds (Marti-Centelles R. et al in J. Med Chem Eur, 2015, 103: 488). […] As a positive control the test with concanavalin A (Con A) was performed, which is a globular plant-origin protein that induces mitosis in lymphocytes causing clonal proliferation (Ganem and Martin Gonzalez Baez F A O. in Universo Diagnóstico, 2000, 1 (1):1). Assay with RPMI-1640 (medium without treatment) was performed as blank. […]
Optical light microscope with 40× objective was used. Cells were counted with Neubauer chamber using 0.05 mL suspension of each resuspended samples in 0.4 mL of PBS 1× and 0.05 mL of trypan blue. […] The results were analyzed by the variance analysis test (ANOVA) with SPSS version 16 and then Dunnet's test was applied to discern whether a difference between control and experimental treatments was present, taking values of p<0.05 as significant.

[5] = test system: rats with alloxan-induced diabetes; assay: Alloxan-induced diabetes in rats; format: in vivo
Experimental: (§3) In all tests carried out on laboratory animals the treatment was orally administered in a weight-dependent measure, through orogastric cannula, after conventional feed consumption for rodents and lagomorphs (Commission of the European Communities in Off. J. Eur. Comm (L 383 A), 1992, 35: 110), respectively.
(§4) Body weight was determined and recorded at the beginning and end of the experiment. Also in case of rabbits, clinical laboratory tests were performed before and after each test: blood biometry, blood chemistry and activity of transaminase enzymes: aspartate aminotransferase (AST), alanine aminotransferase (TGP) and transpeptidase gamma glutamyl transaminase (GGT). In rats, these parameters were determined only at the end of testing to prevent blood loss. Finally, we proceeded with the euthanasia step to animals applying a series of anesthetics and potassium chloride (KCl). Subsequently, an organ and fundamental tissue macroscopic examination and necropsy was conducted, primarily including heart, kidney, spleen, pancreas, lung, liver, ovaries and testicles, according to each case. Samples taken were sent to carry out a histopathological study.
(§5) In addition, the test in rats and rabbits with alloxan-induced diabetes was performed. […] Insulin glargine was administered subcutaneously at a dose of 0.7 U/kg in a single morning administration every 24 h.

[6] = test system: rabbits with alloxan-induced diabetes; assay: Alloxan-induced diabetes in rabbits; format: in vivo
Experimental: as §3, §4, §5

[7] = positive control, 1.95-2000 ppm

## 3, 5, 4-trihydroxy-trans-stilbene [resveratrol]
Artemia salina nauplii; 62.6 ppm solution, 24 h
  mortality of A. salina nauplii: 38%
  toxicity class (percent mortality scale): moderate toxicity
Artemia salina nauplii; 24 h
  LC50 (lethal concentration to 50% nauplii): 89.48 ppm
Artemia salina nauplii; from the LC50 concentration (89.48 ppm)
  toxicity class (percent mortality scale): highly toxic (51-90% highly toxic)

## NCC(=O)O [Glycine, glycine]
Artemia salina nauplii; 24 h
  toxicity expressed as percent mortality of A. salina nauplii: toxicity free

## N=C(N)NCCC[C@H](N)C(=O)O [arginine]
Artemia salina nauplii; 24 h
  toxicity expressed as percent mortality of A. salina nauplii: toxicity free

## OO [hydrogen peroxide]
[1]
  DNA damage (genotoxicity): much more rapid dsDNA diffusion

## Triton X-100
[2]; Vero, MTT, 24 h
  LC50: 42.80±1.60 ppm
[2]; [7]
  effect on absorbance/viability: dose-depending effect
[3]; HEK-293, MTT, 24 h
  LC50: 764.10±21.93 ppm
[3]; [7]
  effect on absorbance/viability: dose-depending effect

## concanavalin A
[4]
  increase in the number of cells: 65%
  number of cells: 9,101,667 cells/mL

## insulin
[5]; diabetic rats treated only with insulin, up to 19 days
  capillary glucose: increase in the tendency for capillary glucose
[5]; diabetic rats, pure insulin, compared to other groups
  weight change: tendency of weight loss decrease is much more visible
[5]; diabetic rats, single treatment only
  macroscopic pancreatic alterations at autopsy: most severe pancreatic alterations
[6]; diabetic female rabbit treated only with insulin
  kidney histology: early diabetic nephropathy
[6]; diabetic female rabbit treated only with the named treatment
  pancreas histology: complete destruction of the organ
[6]; diabetic male rabbit treated only with insulin
  kidney histology, tubular component: changes by coagulative necrosis and nuclei pyknosis
[6]; diabetic rabbits, single treatment only
  macroscopic pancreatic alterations at autopsy: most severe pancreatic alterations
